{"source": "paper PMC10326281", "about": "“Insights into the mechanisms governing P01 scorpion toxin effect against U87 glioblastoma cells oncogenesis” (Frontiers in Pharmacology, 2023)", "system": "SK2 currents of U87 cells", "assay": "Whole-cell patch clamp, K+ currents of U87 cells", "format": "cell-based, human", "settings": "P01 125 pM vs Leidab-7 50 nM, ns between treatments", "description": "For U87 cells, whole-cell K^+ currents were generated by stepwise 8 mV depolarizing pulses from a constant holding potential of −90 up to +60 mV. The composition of extracellular solution is the same as that described above and the intracellular pipette solution is as follows in mM: K-glutamate 125, KCl 20, MgCl2 1, Mg-ATP 1, HEPES 10, CaCl2 0.7, EGTA 1, and pH was adjusted to 7.2 with KOH. The pCa is of 6.4 (10^−6.4 M of calcium concentration). Leidab-7 (Tocris, France) was used as reference peptide to selectively block SK2 currents in U87 cells.", "note": "Where a SMILES comes first, the peptide text is derived from it. Bridges are numbered along the chain shown (N, C = ends)."}
{"molecule": "CC[C@H](C)[C@H](NC(=O)[C@@H]1CCCN1C(=O)[C@H](CCC(=O)O)NC(=O)[C@@H]1CSSC[C@@H]2NC(=O)[C@H](Cc3c[nH]cn3)NC(=O)[C@H](CCC(=O)O)NC(=O)[C@@H]3CCCN3C(=O)[C@@H]3CSSC[C@H](NC(=O)[C@H](CCCCN)NC(=O)[C@H](CC(=O)O)NC(=O)[C@H](CC(N)=O)NC(=O)[C@H](CC(=O)O)NC(=O)[C@H](CSSC[C@H](NC(=O)[C@H](CO)NC(=O)[C@@H](N)C(C)C)C(=O)N[C@@H](CCC(=O)O)C(=O)N[C@@H](CC(=O)O)C(=O)N3)NC(=O)[C@H](CCCCN)NC(=O)[C@H](C)NC(=O)[C@H](CCC(N)=O)NC(=O)[C@H](C)NC(=O)[C@H](CCCCN)NC(=O)[C@H](CCC(N)=O)NC(=O)[C@H]([C@@H](C)O)NC(=O)[C@H](CO)NC2=O)C(=O)N[C@@H](C(C)C)C(=O)N1)C(=O)O", "note": "[P01] (H-VSCEDCPEHCSTQKAQAKCDNDKCVCEPI-OH; disulfide 3-19, 6-24, 10-26 (inferred); N-terminus and C-terminus assumed)", "values": [{"measurement": "current density-voltage relationship compared with Leidab-7", "result": "similar"}]}
